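Cells were grown in 96-well plates and exposed to each compound for 48 hours at five concentrations; endpoints were interpolated linearly between bracketing concentrations, or set to the highest concentration if not reached. Abbreviation: GI50, concentration required for 50% inhibition of growth. At the TGI there is no net growth.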
How the values were obtained:
Test in all cases: NCI anticancer screen, dose series, 48 h
786-0 renal = test system: 786-0 renal
A498 renal = test system: A498 renal
ACHN renal = test system: ACHN renal
BT-549 breast = test system: BT-549 breast
CAKI-1 renal = test system: CAKI-1 renal
CCRF-CEM leukemia = test system: CCRF-CEM leukemia
COLO 205 colon = test system: COLO 205 colon
HCC-2998 colon = test system: HCC-2998 colon
HCT-116 colon = test system: HCT-116 colon
HL-60(TB) leukemia = test system: HL-60(TB) leukemia
HOP-62 NSCLC = test system: HOP-62 NSCLC
HS 578T breast = test system: HS 578T breast
HT29 colon = test system: HT29 colon
IGROV1 ovarian = test system: IGROV1 ovarian
K-562 leukemia = test system: K-562 leukemia
M14 melanoma = test system: M14 melanoma
MDA-MB-435 = test system: MDA-MB-435
MOLT-4 leukemia = test system: MOLT-4 leukemia
NCI-H23 lung = test system: NCI-H23 lung
NCI/ADR-RES ovarian = test system: NCI/ADR-RES ovarian
OVCAR-5 ovarian = test system: OVCAR-5 ovarian
RPMI-8226 leukemia = test system: RPMI-8226 leukemia
RXF 393 renal = test system: RXF 393 renal
SF-268 CNS = test system: SF-268 CNS
SF-539 CNS = test system: SF-539 CNS
SK-MEL-2 melanoma = test system: SK-MEL-2 melanoma
SK-MEL-28 melanoma = test system: SK-MEL-28 melanoma
SK-OV-3 ovarian = test system: SK-OV-3 ovarian
SNB-19 CNS = test system: SNB-19 CNS
SNB-75 CNS = test system: SNB-75 CNS
SR leukemia = test system: SR leukemia
T-47D breast = test system: T-47D breast
U251 CNS = test system: U251 CNS
UACC-257 melanoma = test system: UACC-257 melanoma
UO-31 renal = test system: UO-31 renal
A549 NSCLC = test system: A549 NSCLC
DU-145 prostate = test system: DU-145 prostate
HCT-15 colon = test system: HCT-15 colon
KM12 colon = test system: KM12 colon
LOX IMVI melanoma = test system: LOX IMVI melanoma
MCF7 breast = test system: MCF7 breast
MDA-MB-231 breast = test system: MDA-MB-231 breast
NCI-H226 lung = test system: NCI-H226 lung
NCI-H460 lung = test system: NCI-H460 lung
NCI-H522 lung = test system: NCI-H522 lung
OVCAR-3 ovarian = test system: OVCAR-3 ovarian
OVCAR-4 ovarian = test system: OVCAR-4 ovarian
OVCAR-8 ovarian = test system: OVCAR-8 ovarian
PC-3 prostate = test system: PC-3 prostate
SF-295 CNS = test system: SF-295 CNS
SK-MEL-5 melanoma = test system: SK-MEL-5 melanoma
SN12C renal = test system: SN12C renal
SW-620 colon = test system: SW-620 colon
UACC-62 melanoma = test system: UACC-62 melanoma

## CCOC(=O)C(NC(=O)Nc1ccc(C)cc1)(OCC)C(F)(F)F (centres undefined)
786-0 renal
  TGI: > 100 µM
A498 renal
  TGI: > 100 µM
ACHN renal
  TGI: > 100 µM
BT-549 breast
  TGI: > 100 µM
CAKI-1 renal
  TGI: > 100 µM
CCRF-CEM leukemia
  TGI: > 100 µM
COLO 205 colon
  TGI: > 100 µM
HCC-2998 colon
  TGI: > 100 µM
HCT-116 colon
  TGI: > 100 µM
HL-60(TB) leukemia
  TGI: > 100 µM
HOP-62 NSCLC
  TGI: > 100 µM
HS 578T breast
  TGI: > 100 µM
HT29 colon
  TGI: > 100 µM
IGROV1 ovarian
  TGI: > 100 µM
K-562 leukemia
  TGI: > 100 µM
M14 melanoma
  TGI: > 100 µM
MDA-MB-435
  TGI: > 100 µM
MOLT-4 leukemia
  TGI: > 100 µM
NCI-H23 lung
  TGI: > 100 µM
NCI/ADR-RES ovarian
  TGI: > 100 µM
OVCAR-5 ovarian
  TGI: > 100 µM
RPMI-8226 leukemia
  TGI: > 100 µM
RXF 393 renal
  TGI: > 100 µM
SF-268 CNS
  TGI: > 100 µM
SF-539 CNS
  TGI: > 100 µM
SK-MEL-2 melanoma
  TGI: > 100 µM
SK-MEL-28 melanoma
  TGI: > 100 µM
SK-OV-3 ovarian
  TGI: > 100 µM
SNB-19 CNS
  TGI: > 100 µM
SNB-75 CNS
  TGI: > 100 µM
SR leukemia
  TGI: > 100 µM
T-47D breast
  TGI: > 100 µM
U251 CNS
  TGI: > 100 µM
UACC-257 melanoma
  TGI: > 100 µM
UO-31 renal
  TGI: > 100 µM

## CCN(CC)CCNC(Cc1ccccc1)c1ccc(OCc2ccccc2)cc1 (centres undefined)
786-0 renal
  GI50: 3.61 µM
  TGI: 17.9 µM
A498 renal
  GI50: 2.02 µM
  TGI: 7.94 µM
A549 NSCLC
  GI50: 7.74 µM
  TGI: 22 µM
ACHN renal
  GI50: 7.85 µM
  TGI: 21.6 µM
BT-549 breast
  GI50: 3.55 µM
  TGI: 18.7 µM
CAKI-1 renal
  GI50: 4.52 µM
  TGI: 16.7 µM
CCRF-CEM leukemia
  GI50: 3.19 µM
  TGI: 13.7 µM
COLO 205 colon
  GI50: 1.79 µM
  TGI: 3.4 µM
DU-145 prostate
  GI50: 8.54 µM
  TGI: 21.1 µM
HCC-2998 colon
  GI50: 5.17 µM
  TGI: 17.4 µM
HCT-116 colon
  GI50: 4.25 µM
  TGI: 25.5 µM
HCT-15 colon
  GI50: 3.36 µM
  TGI: 13 µM
HL-60(TB) leukemia
  GI50: 2.77 µM
  TGI: 7.79 µM
HOP-62 NSCLC
  GI50: 8.49 µM
  TGI: 21.7 µM
HS 578T breast
  GI50: 4.32 µM
  TGI: 23.8 µM
HT29 colon
  GI50: 2.44 µM
  TGI: 11.8 µM
IGROV1 ovarian
  GI50: 4.43 µM
  TGI: 17.1 µM
K-562 leukemia
  GI50: 2.37 µM
  TGI: 7.16 µM
KM12 colon
  GI50: 5.22 µM
  TGI: 18.2 µM
LOX IMVI melanoma
  GI50: 4.19 µM
  TGI: 15.9 µM
M14 melanoma
  GI50: 2.07 µM
  TGI: 5.09 µM
MCF7 breast
  GI50: 3.03 µM
  TGI: 12 µM
MDA-MB-231 breast
  GI50: 1.92 µM
  TGI: 6.65 µM
MDA-MB-435
  GI50: 3.16 µM
  TGI: 11 µM
MOLT-4 leukemia
  GI50: 3.43 µM
  TGI: 13.2 µM
NCI-H226 lung
  GI50: 13.8 µM
  TGI: 34.8 µM
NCI-H460 lung
  GI50: 3.56 µM
  TGI: 12.9 µM
NCI-H522 lung
  GI50: 10.2 µM
  TGI: 22.7 µM
NCI/ADR-RES ovarian
  GI50: 9.87 µM
  TGI: 23.2 µM
OVCAR-3 ovarian
  GI50: 11.8 µM
  TGI: 25.8 µM
OVCAR-4 ovarian
  GI50: 5.42 µM
  TGI: 19.4 µM
OVCAR-5 ovarian
  GI50: 7.02 µM
  TGI: 22.4 µM
OVCAR-8 ovarian
  GI50: 10.7 µM
  TGI: 24.4 µM
PC-3 prostate
  GI50: 3.68 µM
  TGI: 15.7 µM
RPMI-8226 leukemia
  GI50: 2.4 µM
  TGI: 6.84 µM
RXF 393 renal
  GI50: 3.83 µM
  TGI: 18.1 µM
SF-268 CNS
  GI50: 7.57 µM
  TGI: 22.3 µM
SF-295 CNS
  GI50: 2.04 µM
  TGI: 4.57 µM
SF-539 CNS
  GI50: 5.26 µM
  TGI: 18.6 µM
SK-MEL-2 melanoma
  GI50: 3.42 µM
  TGI: 9.74 µM
SK-MEL-28 melanoma
  GI50: 1.85 µM
  TGI: 4.03 µM
SK-MEL-5 melanoma
  GI50: 1.97 µM
  TGI: 4.46 µM
SK-OV-3 ovarian
  GI50: 10.9 µM
  TGI: 23.6 µM
SN12C renal
  GI50: 6.68 µM
  TGI: 20.8 µM
SNB-19 CNS
  GI50: 9.65 µM
  TGI: 22.8 µM
SNB-75 CNS
  GI50: 4.29 µM
  TGI: 18 µM
SR leukemia
  GI50: 2.35 µM
  TGI: 6.74 µM
SW-620 colon
  GI50: 5.53 µM
  TGI: 20 µM
U251 CNS
  GI50: 3.41 µM
  TGI: 15.3 µM
UACC-257 melanoma
  GI50: 2.13 µM
  TGI: 4.85 µM
UACC-62 melanoma
  GI50: 1.92 µM
  TGI: 3.89 µM
UO-31 renal
  GI50: 2.53 µM
  TGI: 14.7 µM

— PubChem BioAssay (NCI)
